Where two headings read alike, the source gives them in different places.

Common to all, as to format: cell-based
The target of experiment [1] is T1, ERα (Homo sapiens, UniProt P03372).
T1 sequence (P03372 311-547 limits assumed): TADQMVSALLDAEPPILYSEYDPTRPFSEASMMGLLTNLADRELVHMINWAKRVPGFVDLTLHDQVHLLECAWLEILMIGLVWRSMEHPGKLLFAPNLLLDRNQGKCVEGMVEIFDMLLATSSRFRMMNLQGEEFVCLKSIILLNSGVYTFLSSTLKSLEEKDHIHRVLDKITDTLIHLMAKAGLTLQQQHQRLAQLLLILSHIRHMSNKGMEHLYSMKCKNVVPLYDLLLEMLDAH
Nature of the experiment: HEK293/GAL4/ERα antagonist assay (luciferase reporter). The following applies: 1 nM estradiol, read-out: IC50 (nM), antagonistic effect. The procedure:
(2) HEK293/GAL4/ERα Antagonist Assay
DMEM (without phenol red) containing 10% charcoal-stripped serum (i.e., 450 mL DMEM and 50 mL charcoal-stripped serum in 500 mL medium)
The antagonistic effect of the compound of formula (I) on ERα, was analyzed using triplicate wells with compound concentration ranging from 200 nM to 0.00256 nM.
• 1) The HEK293/GAL4/ERα cell suspension was collected and centrifuged at 1000 rpm for 5 minutes. The supernatant was discarded, and the cells were resuspended in pre-warmed experimental medium. After counting, the cell suspension was diluted with experimental medium. 40000 cells per well were seeded into a 96-well cell culture plate, with 80 μL of cell suspension per well. […] Subsequently, 10 μL of assay medium containing 10 nM estradiol was added to each well. For blank controls, 10 μL of assay medium was added. A final estradiol concentration of 1 nM was ensured. […] The plate was incubated at 25° C. for 2 minutes. After incubation, the luminescence signal was then detected using an EnVision plate reader. Data Analysis:
GraphPad Prism software was used to plot the data and calculate the IC50 values for the compound.

Experiment [2] deals with MCF-7 cells. Nature of the experiment: MCF-7 cell proliferation inhibition assay (CTG). The following applies: Homo sapiens. On the procedure:
(§1) (4) MCF-7, T-47D, and CAMA-1 Cell Proliferation Inhibition Assay
(§2) The inhibitory effect of the test compound of formula (I) on the proliferation of MCF-7, CAMA-1, and T-47D cells was analyzed. For MCF-7 cells, ten concentration gradients ranging from 100 nM to 0.0003815 nM were tested, with three replicates for each concentration. For CAMA-1 cells, nine concentration gradients ranging from 100 nM to 0.001526 nM were tested, also with three replicates for each concentration. For T-47D cells, nine concentration gradients ranging from 2 μM to 0.00512 nM were tested, with three replicates for each concentration. Each experiment was conducted twice independently.
MCF-7 cells that reached 80% cell fusion were digested using trypsin, centrifuged, resuspended, and counted. Cell suspensions were prepared using the corresponding culture medium, and 45 μL of the suspension was added to each well of a 384-well plate. The plate was then incubated at 37° C. in a cell incubator with 5% CO2. The test compound of formula (I) was dissolved in DMSO to an initial concentration of 20 μM and subjected to a 4-fold serial dilution to achieve ten different concentrations. After overnight incubation, the diluted compound was further diluted with the corresponding cell culture medium. The resulting mixture was transferred to the respective wells of the cell plate, starting with a final concentration of 100 nM, followed by a 4-fold serial dilution to achieve ten concentrations. The positive control wells contained 2 μM fulvestrant. The plate was mixed, centrifuged, and incubated at 37° C. in a cell incubator with 5% CO2 for the specified number of days according to the above table.
After incubation for the specified time, the cell culture plate was removed, and the CTG reagent was added. The plate was thoroughly mixed, centrifuged, and incubated at room temperature for 10 minutes. The readings were taken using the Envision multi-label analyzer. Data analysis:
Positive control: cells treated with 2 μM fulvestrant; negative control: cells treated with 0.5% DMSO. […]

The test system of experiment [3] is CAMA-1 cells. The experiment in a line: CAMA-1 cell proliferation inhibition assay (CTG). Conditions: Homo sapiens, 1 nM estradiol. On the procedure:
as §1
CAMA-1: EMEM (without phenol red) containing 10% charcoal-stripped serum (500 mL culture medium containing 440 mL EMEM, 50 mL charcoal-stripped serum, 5 mL NEAA, 5 mL 100 mM sodium pyruvate).
as §2
The CAMA-1 cells were treated with starvation medium for three days, followed by trypsin digestion, centrifugation, resuspension, and counting. Cell suspensions were prepared using the corresponding culture medium, and 80 μL of the suspension was added to each well of a 96-well plate. The plate was then incubated at 37° C. in a cell incubator with 5% CO2. The test compound of formula (I) was dissolved in DMSO to an initial concentration of 20 μM and subjected to a 4-fold serial dilution to achieve nine different concentrations. After overnight incubation, the diluted compound was further diluted with the corresponding cell culture medium. The resulting mixture was transferred to the respective wells of the cell plate, starting with a final concentration of 100 nM, followed by a 4-fold serial dilution to achieve nine concentrations. The positive control wells contained 2 μM fulvestrant, and 1 nM estradiol was added to the entire plate. […]
After incubation for the specified time, the cell culture plate was removed, and the CTG reagent was added. […] The readings were taken using the Envision multi-label analyzer. […]

Experiment [4] deals with HCC1428 cells. The experiment in a line: HCC1428 cell proliferation inhibition assay (CTG). The following applies: Homo sapiens, HCC1428, 168 h, 7 days. On the procedure: (5) HCC1428 and MDA-MB-134VI Cell Proliferation Inhibition Assay
The initial concentration of the compound of formula (I) was set at 200 nM, followed by 4-fold serial dilutions to achieve ten concentration gradients.
• 1) HCC1428 cells were cultured in RPMI 1640 complete growth medium containing 10% FBS and 1% PenStrep. • 2) When the cells in a T75 culture flask reached 80-90% cell fusion, they were digested with trypsin and collected. The cell passages used were the seventh generation for the first independent experiment and the thirteenth generation for the second independent experiment. • 3) The cells were centrifuged at 1000 rpm, resuspended in complete medium, and counted. The cell densities were 1.30×10^6 cells/mL for the first experiment and 9.50×10^5 cells/mL for the second experiment, with viability both exceeding 95%. • 4) Cell suspensions were prepared in complete medium at a density of 1.25×10^4 cells/mL for both experiments. […] 100 μL of CellTiter-Glo® reagent was added to each well. The plate was incubated at room temperature in the dark for 30 minutes. • 8) Luminescence values were read using a BMG plate reader.
The IC50 (half-maximal inhibitory concentration) of the compound was obtained using the following nonlinear fitting formula: […]

In general, IC50 refers to the concentration at which inhibition is half-maximal. Regarding `FCCCN1CC[C@H](Nc2cnc(C3=C(CC(F)(F)F)CCCc4c3ccc3[nH]nc(F)c43)cn2)C1` [Compound of formula (I)], the concentration for half-maximal inhibition (IC50) stood at 0.0857 ± 0.0103 nM in experiment [1] (Mean ± SD); 0.096 nM in experiment [1] (N = 1); 0.075 nM in experiment [1] (N = 2); 0.19 nM in experiment [2] (MCF7, First experiment); 0.18 ± 0.013 nM in experiment [2] (MCF7, Mean ± SD); 0.16 nM in experiment [2] (MCF7, Second experiment). The half-inhibitory concentration (IC50) in experiment [3] (CAMA-1, First experiment) was 1.19 nM; in experiment [3] (CAMA-1, Mean ± SD), 1.29 ± 0.1 nM; in experiment [3] (CAMA-1, Second experiment) it was 1.39 nM; in experiment [4] (First experiment) it was 0.49 nM; in experiment [4] (Mean ± SD), 1.55 ± 0.99 nM; in experiment [4] (Second experiment) it was 1.34 nM.
